Measured values reported in ChEMBL document CHEMBL1146834, “1-Azakenpaullone is a selective inhibitor of glycogen synthase kinase-3 beta” (Bioorg Med Chem Lett, 2004).

Columns and labels:
[1] = target: Cyclin-dependent kinase 5/CDK5 activator 1 (Homo sapiens, UniProt Q00535); assay: Inhibition of human Cyclin-dependent kinase 5-p35nck5a; assay type: protein-complex assay
[2] = target: Cyclin-dependent kinase 1/cyclin B (Homo sapiens, UniProt P06493); assay: Inhibition of human cyclin-dependent kinase 1-cyclin B; assay type: protein-complex assay
Homo sapiens = organism: Homo sapiens; assay: Relative inhibition of human CDK-1 and GSK3-beta
[3] = target: Glycogen synthase kinase-3 beta (Homo sapiens, UniProt P49841)
Sequence of Glycogen synthase kinase-3 beta (P49841 whole entry): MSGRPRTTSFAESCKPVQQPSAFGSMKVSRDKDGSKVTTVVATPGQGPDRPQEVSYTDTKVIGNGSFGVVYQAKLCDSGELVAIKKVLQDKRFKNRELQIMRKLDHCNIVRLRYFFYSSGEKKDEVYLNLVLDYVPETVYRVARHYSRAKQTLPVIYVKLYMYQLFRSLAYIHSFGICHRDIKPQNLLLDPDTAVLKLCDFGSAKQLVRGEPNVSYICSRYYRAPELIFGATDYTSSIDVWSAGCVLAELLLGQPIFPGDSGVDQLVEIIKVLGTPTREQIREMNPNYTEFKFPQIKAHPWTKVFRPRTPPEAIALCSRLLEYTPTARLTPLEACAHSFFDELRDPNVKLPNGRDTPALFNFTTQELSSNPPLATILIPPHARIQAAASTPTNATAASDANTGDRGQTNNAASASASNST
Description: Inhibition of human glycogen synthase kinase-3 beta

Sequence of Cyclin-dependent kinase 5/CDK5 activator 1 (Q00535 whole entry): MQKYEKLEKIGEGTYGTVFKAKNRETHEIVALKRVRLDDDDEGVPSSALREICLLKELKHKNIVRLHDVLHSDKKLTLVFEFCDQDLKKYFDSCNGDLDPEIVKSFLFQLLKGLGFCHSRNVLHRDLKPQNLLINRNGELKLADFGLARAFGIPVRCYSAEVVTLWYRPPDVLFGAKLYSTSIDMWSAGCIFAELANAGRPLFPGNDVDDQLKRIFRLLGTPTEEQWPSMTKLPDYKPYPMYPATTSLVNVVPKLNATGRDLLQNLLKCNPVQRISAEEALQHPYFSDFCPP
Sequence of Cyclin-dependent kinase 5/CDK5 activator 1 (Q15078 whole entry, further chain): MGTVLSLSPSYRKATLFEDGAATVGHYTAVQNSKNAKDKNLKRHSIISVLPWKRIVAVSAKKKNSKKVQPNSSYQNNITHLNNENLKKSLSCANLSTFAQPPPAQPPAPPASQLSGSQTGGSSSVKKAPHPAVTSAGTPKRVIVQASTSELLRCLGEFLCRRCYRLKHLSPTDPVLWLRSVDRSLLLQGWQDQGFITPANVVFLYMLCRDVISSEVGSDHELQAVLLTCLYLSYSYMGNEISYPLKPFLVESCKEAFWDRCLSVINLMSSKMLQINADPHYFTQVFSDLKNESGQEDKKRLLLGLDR

| SMILES | IC50 [1] [µM] | IC50 [2] [µM] | Selectivity index (Homo sapiens) | IC50 [3] [µM] |
| --- | --- | --- | --- | --- |
| O=Nc1c(-c2c(O)[nH]c3ccc(I)cc23)[nH]c2ccccc12 | 0.02 | 0.025 | – | – |
| O=C1Cc2c([nH]c3ccc(Br)cc23)-c2ncccc2N1 [AZAKENPAULLONE] | – | 2 | – | – |
| O=C1Cc2c([nH]c3ccc(Br)cc23)-c2cccnc2N1 | 12 | 8.4 | 1.4 | 6 |
| CC(C)c1c(-c2ccc(Cl)cc2)[nH]c2nccnc12 | – | – | 1.1 | – |
| NC1=NC(=O)/C(=C2\CCNC(=O)c3[nH]c(Br)cc32)N1 [HYMENIALDISINE] | 0.028 | 0.022 | – | – |
